According to patent publication US10500209B2, “Quinazolinones as bromodomain inhibitors” (Zenith Epigenetics Ltd., priority 2013, dated 2019):

Legend:
c-myc in MV4-11 cells = experiment: Inhibition of c-myc expression in cancer cell lines (mRNA, real-time PCR); format: cell-based, Human; parameters: key: Active: Compounds with an IC50 value less than 30 μM were deemed to be active.; Not Active: Compounds with an IC50 value less than 30 μM were deemed to be active; details: 3 h
Experimental: MV4-11 cells (2.5×10^4 cells) were plated in 96 well U-bottom plates with test compound or DMSO (0.1%), and incubated for 3 h at 37° C. Cells were then harvested by centrifugation, lysed, and mRNA was isolated using the mRNA catcher plus kit (Invitrogen). Reverse transcription of the mRNA and duplex amplification of the c-myc and cyclophilin cDNAs was performed using the RNA Ultrasense kit (Invitrogen) and a ViiA7 real-time PCR machine (Applied Biosystems). IC50 values were determined from a dose response curve.

[1] = biological target: T1, Brd4 bromodomain 1 (BRD4(1)) (Homo sapiens, UniProt O60885); experiment: Inhibition of tetra-acetylated histone H4 binding to BET bromodomains (TR-FRET); parameters: key: Active: Compounds with an IC50 value less than 30 μM were deemed to be active.; Not Active: Compounds with an IC50 value less than 30 μM were deemed to be active; details: first bromodomain of Brd4, tetra-acetylated histone H4 peptide
T1 construct: made in house; host or cells: E. coli BL21(DE3)
Experimental: Proteins were cloned and overexpressed with a N-terminal 6×His tag, then purified by nickel affinity followed by size exclusion chromatography. Briefly, E. coli BL21(DE3) cells were transformed with a recombinant expression vector encoding N-terminally Nickel affinity tagged bromodomains from Brd2, Brd3, Brd4. Cell cultures were incubated at 37° C. with shaking to the appropriate density and induced overnight with IPTG. The supernatant of lysed cells was loaded onto Ni-IDA column for purification. Eluted protein is pooled, concentrated and further purified by size exclusion chromatography. Fractions representing monomeric protein were pooled, concentrated, aliquoted, and frozen at −80° C. for use in subsequent experiments.
Binding of tetra-acetylated histone H4 and BET bromodomains was confirmed by a Time Resolved Fluorescence Resonance Energy Transfer (TR-FRET) method. N-terminally His-tagged bromodomains (200 nM) and biotinylated tetra-acetylated histone H4 peptide (25-50 nM, Millipore) were incubated in the presence of Europium Cryptate-labeled streptavidin (Cisbio Cat. #610SAKLB) and XL665-labeled monoclonal anti-His antibody (Cisbio Cat. #61HISXLB) in a white 96 well microtiter plate (Greiner). For inhibition assays, serially diluted test compound was added to these reactions in a 0.2% final concentration of DMSO. Final buffer concentrations were 30 mM HEPES pH 7.4, 30 mM NaCl, 0.3 mM CHAPS, 20 mM phosphate pH 7.0, 320 mM KF, 0.08% BSA). After a 2-h incubation at room temperature, the fluorescence by FRET was measured at 665 and 620 nm by a SynergyH4 plate reader (Biotek). The binding inhibitory activity was shown by a decrease in 665 nm fluorescence relative to 620 nm. IC50 values were determined from a dose response curve.

human AML MV-4-11 cells = experiment: Inhibition of cell proliferation in cancer cell lines (CellTiter Aqueous One); format: cell-based; parameters: key: Active: Compounds with an IC50 value less than 30 μM were deemed to be active.; Not Active: Compounds with an IC50 value less than 30 μM were deemed to be active; details: 72 h
Experimental: MV4-11 cells: 96-well plates were seeded with 5×10^4 cells per well of exponentially growing human AML MV-4-11 (CRL-9591) cells and immediately treated with two-fold dilutions of test compounds, ranging from 30 μM to 0.2 μM. Triplicate wells were used for each concentration, as well as a media only and three DMSO control wells. The cells and compounds were incubated at 37° C., 5% CO2 for 72 h before adding 20 μL of the CellTiter Aqueous One Solution (Promega) to each well and incubating at 37° C., 5% CO2 for an additional 3-4 h. The absorbance was taken at 490 nm in a spectrophotometer and the percentage of proliferation relative to DMSO-treated cells was calculated after correction from the blank well. IC50 were calculated using the GraphPad Prism software.

Compound | melting point [°C] | c-myc activity (IC50 < 30 μM) (c-myc in MV4-11 cells) | FRET activity BRD4(1) [1] | Cell Proliferation activity (IC50 < 30 μM) (human AML MV-4-11 cells)
COc1ccc(CNc2cc(OC)c3c(=O)[nH]c(-c4ncccc4NC4CCN(C(C)C)CC4)nc3c2)cc1 [Example 61, 2-(3-((1-Isopropylpiperidin-4-yl)amino)pyridin-2-yl)-5-methoxy-7-((4-methoxybenzyl)amino)quinazolin-4(3H)-one] | 220 to 222 | Active | Active | Active
COc1ccc(-c2nc3cc(OC)cc(OC)c3c(=O)[nH]2)c([S+]([O-])C2CCN(C)CC2)c1 (centres unmarked) [Example 23, 5,7-Dimethoxy-2-[4-methoxy-2-(1-methylpiperidin-4-ylsulfinyl)phenyl]quinazolin-4(3H)-one] | 263 to 265 | – | Active | Not Active
COc1ccc(-c2nc3cc(OC)cc(OC)c3c(=O)[nH]2)c(NC2CCOCC2)c1 [Example 9, 5,7-dimethoxy-2-(4-Methoxy-2-((tetrahydro-2H-pyran-4-yl)amino)-phenyl)quinazolin-4(3H)-one] | 286 to 287 | – | Active | Not Active
COc1cc(OC)c2c(=O)[nH]c(-c3ncc(OCCN4CCCC4)cc3NC3CCN(C(C)C)CC3)nc2c1 [Example 66, 2-{3-(1-Isopropylpiperidin-4-ylamino)-5-[2-(pyrrolidin-1-yl)ethoxy]pyridin-2-yl}-5,7-dimethoxyquinazolin-4(3H)-one] | 166 to 169 | Active | Active | Active
COc1cc(OC)c2c(=O)[nH]c(-c3ncccc3NC3CCN(C(N)=O)CC3)nc2c1 [Example 54, 4-((2-(5,7-Dimethoxy-4-oxo-3,4-dihydroquinazolin-2-yl)pyridin-3-yl)amino)piperidine-1-carboxamide] | 265 to 266 | – | Active | –
COc1ccc(-c2nc3cc(OC)cc(OC)c3c(=O)[nH]2)c(NCCN2CCNCC2)c1 [Example 24, 5,7-Dimethoxy-2-(4-methoxy-2-((2-(piperazin-1-yl)ethyl)amino)phenyl)quinazolin-4(3H)-one] | 210 to 212 | – | Active | –
COc1cnc(-c2nc3cc(OC)cc(OC)c3c(=O)[nH]2)c(NC2CCN(C(C)C)CC2)c1 [Example 30, 2-(3-((1-Isopropylpiperidin-4-yl)amino)-5-methoxypyridin-2-yl)-5,7-dimethoxyquinazolin-4(3H)-one] | 207 to 208 | – | Active | Active
COc1cc(OC)c2c(=O)[nH]c(-c3ccccc3NC3CCN(C(C)C)CC3)nc2c1 [Example 10, 2-(2-((1-Isopropylpiperidin-4-yl)amino)phenyl)-5,7-dimethoxyquinazolin-4(3H)-one] | 267 to 269 | – | Active | –
COc1cc(OC)c2c(=O)[nH]c(-c3ncccc3NC3CCN(C)CC3)nc2c1 [Example 44, 5,7-Dimethoxy-2-(3-((1-methylpiperidin-4-yl)amino)pyridine-2-yl)quinazolin-4(3H)-one] | 186 to 188 | – | Active | –
COc1cc(OC)c2c(=O)[nH]c(-c3ncccc3N[C@H]3CC[C@@H](C(=O)NC(C)C)CC3)nc2c1 [Example 63, cis-4-((2-(5,7-Dimethoxy-4-oxo-3,4-dihydroquinazolin-2-yl)pyridin-3-yl)amino)-N-isopropylcyclohexane-1-carboxamide] | 256 to 257 | – | Active | Not Active
COc1ccc(-c2nc3cc(OC)cc(OC)c3c(=O)[nH]2)c(NCCN2CCOCC2)c1 [Example 14, 5,7-Dimethoxy-2-(4-methoxy-2-((2-morpholinoethyl)amino)phenyl)-quinazolin-4(3H)-one] | 239 to 240 | – | Active | Not Active
COc1cc(OC)c2c(=O)[nH]c(-c3ncccc3NCC3CCN(C)C3)nc2c1 (centres unmarked) [Example 41, 5,7-Dimethoxy-2-(3-(((1-methylpyrrolidin-3-yl)methyl)amino)pyridin-2-yl)quinazolin-4(3H)-one] | 157 to 159 | – | Active | –
COc1ccc(-c2nc3cc(OC)cc(OC)c3c(=O)[nH]2)c(NCCCN2CCCC2)c1 [Example 15, 5,7-Dimethoxy-2-(4-methoxy-2-((3-(pyrrolidin-1-yl)propyl)amino)phenyl)quinazolin-4(3H)-one] | – | Active | Active | Active
COc1ccc(-c2nc3cc(OC)cc(OC)c3c(=O)[nH]2)c(NCC2CCCN2C(C)C)c1 (centres unmarked) [Example 17, 2-(2-(((1-Isopropylpyrrolidin-2-yl)methyl)amino)-4-methoxyphenyl)-5,7-dimethoxyquinazolin-4(3H)-one] | 207 to 209 | Active | Active | –
COc1cc(OC)c2c(=O)[nH]c(-c3ccc(Cl)cc3NC3CCN(C(=O)C(C)C)CC3)nc2c1 [Example 34, 2-(4-Chloro-2-((1-isobutyrylpiperidin-4-yl)amino)phenyl)-5,7-dimethoxyquinazolin-4(3H)-one] | 281 to 283 | – | Active | –
COc1ccc(-c2nc3cc(OC)cc(OC)c3c(=O)[nH]2)c(NCCN2CCCCC2)c1 [Example 12, 5,7-Dimethoxy-2-(4-methoxy-2-((2-(piperidin-1-yl)ethyl)amino)-phenyl)quinazolin-4(3H)-one] | 231 to 232 | – | Active | –
COc1ccc(-c2nc3cc(OC)cc(OC)c3c(=O)[nH]2)c(NCCN2CCCC2)c1 [Example 11, 5,7-Dimethoxy-2-(4-methoxy-2-((2-(pyrrolidin-1-yl)ethyl)amino)phenyl)quinazolin-4(3H)-one] | 226 to 228 | – | Active | –
COc1ccc(-c2nc3cc(OC)cc(OC)c3c(=O)[nH]2)c(NC2CCN(C)C2)c1 (centres unmarked) [Example 4, 5,7-Dimethoxy-2-(4-methoxy-2-((1-methylpyrrolidin-3-yl)amino)phenyl)quinazolin-4(3H)-one] | 214 to 215 | – | Active | –
COc1cc(OC)c2c(=O)[nH]c(-c3ncccc3NC3CCN(C(C)(C)CO)CC3)nc2c1 [Example 68, 2-(3-((1-(1-Hydroxy-2-methylpropan-2-yl)piperidin-4-yl)amino)pyridin-2-yl)-5,7-dimethoxyquinazolin-4(3H)-one] | 223 to 225 | – | Active | –
COc1ccc(-c2nc3cc(OC)cc(OC)c3c(=O)[nH]2)c(NCC2CCN(C)CC2)c1 [Example 6, 5,7-Dimethoxy-2-(4-methoxy-2-(((1-methylpiperidin-4-yl)methyl)amino)phenyl) quinazolin-4(3H)-one] | 264 to 265 | – | Active | –
COc1cc(OC)c2c(=O)[nH]c(-c3ncccc3NCCCNC(C)C)nc2c1 [Example 43, 2-(3-((3-(Isopropylamino)propyl)amino)pyridin-2-yl)-5,7-dimethoxyquinazolin-4(3H)-one] | 121 to 122 | – | Active | –
